In one test the test system is Env-elicited syncytia. The test is classed as cell-based. The note with it: SN50 20 µM, cyclic pifithrin-α 10 µM, added at the beginning of co-culture; Fig. 7D. The method, then:
HeLa/U937 cell co-cultures were performed at different ratios (6). U937 or Jurkat cells were cultured with recombinant gp120 protein (500 ng/ml).

The next test has as its system Env-induced syncytia. The note with it: cited from earlier work.

SMILES strings stand for the structures.

As to `Cc1ccc(-c2cn3c4c(sc3n2)CCCC4)cc1` [pifithrin-α, cyclic pifithrin-α], the “activation of Bax and Bak” value in the test on Env-elicited syncytia is listed as “inhibited”. The syncytium-dependent cell death result with Env-induced syncytia (reference (5)) is listed as “blocked”. In addition, in the test with Env-induced syncytia (references (5, 7)), the “Env-induced upregulation of Bax” value is given as “prevents” and the syncytial cell death entry was “retards”.

Source of the values: patent EP1542016A1, “PUMA, phosphorylated p53 and p38 map kinase as markers for HIV-1-induced apoptosis in circulating T cells of infected patient” (Institut Gustave Roussy, priority 2003, dated 2005).
